Results reported in the NIST ThermoML archive (doi:10.1021/je060486k).
Numbers after ± are expanded uncertainties.

Assay: cn = amount concentration of the nth substance listed, in mol/dm3
Settings: 298.15 K; for surface tension liquid-gas: Wilhelmy plate method; for kinematic viscosity / mass density / speed of sound: 101 kPa, Liquid; for kinematic viscosity: Capillary tube (Ostwald / Ubbelohde) method

CCCCCCCCCC[N+](C)(C)C.[Br-] [N,N,N-trimethyl-1-decanaminium bromide] + O
Settings | kinematic viscosity [m2/s] | mass density [kg/m3] | speed of sound [m/s] | surface tension liquid-gas [mN/m]
c1 = 0.001 | 8.975e-07 ± 6.1e-09 | 997.11 ± 0.57 | 1497.3 ± 3 | 65.4 ± 0.8
c1 = 0.005 | 8.99e-07 ± 6.1e-09 | 997.25 ± 0.57 | 1497.8 ± 3 | 60.1 ± 0.8
c1 = 0.01 | 9.048e-07 ± 6.1e-09 | 997.37 ± 0.56 | 1498.7 ± 3 | 57.6 ± 0.8
c1 = 0.02 | 9.14e-07 ± 6.2e-09 | 997.58 ± 0.56 | 1500.8 ± 3 | 49.7 ± 0.8
c1 = 0.03 | 9.224e-07 ± 6.2e-09 | 997.85 ± 0.56 | 1502.6 ± 3 | 43.4 ± 0.8
c1 = 0.04 | 9.35e-07 ± 6.3e-09 | 998.06 ± 0.56 | 1504.3 ± 3 | 38 ± 0.8
c1 = 0.05 | 9.449e-07 ± 6.4e-09 | 998.33 ± 0.56 | 1506.3 ± 3 | 36.9 ± 0.8
c1 = 0.06 | 9.56e-07 ± 6.4e-09 | 998.52 ± 0.56 | 1508 ± 3 | 36.1 ± 0.8
c1 = 0.07 | 9.642e-07 ± 6.5e-09 | 998.79 ± 0.56 | 1509.2 ± 3 | 35.5 ± 0.8
c1 = 0.08 | 9.78e-07 ± 6.6e-09 | 999 ± 0.56 | 1509.7 ± 3 | 35.2 ± 0.8
c1 = 0.1 | 1.002e-06 ± 6.7e-09 | 999.37 ± 0.56 | 1510.1 ± 3 | 35.2 ± 0.8
c1 = 0.12 | 1.024e-06 ± 6.9e-09 | 999.77 ± 0.56 | 1510.6 ± 3.1 | 35 ± 0.8
c1 = 0.15 | 1.062e-06 ± 7.2e-09 | 1000.4 ± 0.56 | 1511.1 ± 3.1 | 35.2 ± 0.8
c1 = 0.2 | 1.117e-06 ± 7.5e-09 | 1001.22 ± 0.57 | 1511.7 ± 3.1 | 35 ± 0.8
c1 = 0.25 | 1.181e-06 ± 8e-09 | 1002.09 ± 0.58 | 1512.4 ± 3.1 | 35.1 ± 0.8

CCCCCC[N+](C)(C)C.[Br-] [hexyltrimethylammonium bromide] + O
Settings | kinematic viscosity [m2/s] | mass density [kg/m3] | speed of sound [m/s] | surface tension liquid-gas [mN/m]
c1 = 0.1 | 9.149e-07 ± 6.2e-09 | 1000.32 ± 0.55 | 1510.6 ± 3 | 51.6 ± 0.8
c1 = 0.2 | 9.406e-07 ± 6.4e-09 | 1003.85 ± 0.58 | 1524.9 ± 3.1 | 44.3 ± 0.8
c1 = 0.3 | 9.727e-07 ± 6.6e-09 | 1006.97 ± 0.6 | 1537.3 ± 3.1 | 41.1 ± 0.8
c1 = 0.4 | 1.011e-06 ± 6.8e-09 | 1010.42 ± 0.62 | 1550.5 ± 3.1 | 38.3 ± 0.8
c1 = 0.45 | 1.033e-06 ± 7e-09 | 1012.06 ± 0.64 | 1557.7 ± 3.1 | 36.8 ± 0.8
c1 = 0.5 | 1.056e-06 ± 7.1e-09 | 1013.74 ± 0.65 | 1562.9 ± 3.1 | 35.8 ± 0.8
c1 = 0.6 | 1.108e-06 ± 7.5e-09 | 1017.19 ± 0.67 | 1575.3 ± 3.2 | 34 ± 0.8
c1 = 0.7 | 1.166e-06 ± 7.8e-09 | 1021.02 ± 0.7 | 1588.6 ± 3.2 | 32.5 ± 0.8
c1 = 0.8 | 1.23e-06 ± 8.3e-09 | 1024.21 ± 0.72 | 1599.1 ± 3.2 | 31.2 ± 0.8
c1 = 0.9 | 1.301e-06 ± 8.7e-09 | 1027.68 ± 0.75 | 1610 ± 3.2 | 30.5 ± 0.8
c1 = 1 | 1.379e-06 ± 9.2e-09 | 1031.33 ± 0.77 | 1620.6 ± 3.2 | 29.9 ± 0.8
c1 = 1.1 | 1.463e-06 ± 9.8e-09 | 1034.12 ± 0.79 | 1628.1 ± 3.2 | 29.5 ± 0.8
c1 = 1.3 | 1.65e-06 ± 1.1e-08 | 1041.07 ± 0.84 | 1644.8 ± 3.3 | 29.3 ± 0.8
c1 = 1.5 | 1.863e-06 ± 1.2e-08 | 1047.62 ± 0.89 | 1652.1 ± 3.3 | 29.1 ± 0.8
c1 = 1.7 | 2.101e-06 ± 1.4e-08 | 1054.38 ± 0.94 | 1660 ± 3.3 | 29.1 ± 0.8
c1 = 2 | 2.508e-06 ± 1.7e-08 | 1064.23 ± 1 | 1670.3 ± 3.3 | 28.9 ± 0.8

CCCCCCCC[N+](C)(C)C.[Br-] [octyl trimethyl ammonium bromide] + O
Settings | kinematic viscosity [m2/s] | mass density [kg/m3] | speed of sound [m/s] | surface tension liquid-gas [mN/m]
c1 = 0.02 | 8.99e-07 ± 6.1e-09 | 997.62 ± 0.56 | 1500.1 ± 3 | 69.4 ± 0.8
c1 = 0.04 | 9.033e-07 ± 6.1e-09 | 998.2 ± 0.56 | 1503.1 ± 3 | 63.1 ± 0.8
c1 = 0.06 | 9.083e-07 ± 6.1e-09 | 998.73 ± 0.56 | 1506.3 ± 3 | 59.5 ± 0.8
c1 = 0.08 | 9.14e-07 ± 6.2e-09 | 999.23 ± 0.55 | 1510 ± 3 | 54.6 ± 0.8
c1 = 0.1 | 9.2e-07 ± 6.2e-09 | 999.68 ± 0.55 | 1513.1 ± 3 | 51.1 ± 0.8
c1 = 0.12 | 9.276e-07 ± 6.3e-09 | 1000.25 ± 0.55 | 1516.4 ± 3.1 | 48.9 ± 0.8
c1 = 0.14 | 9.355e-07 ± 6.3e-09 | 1000.79 ± 0.56 | 1520.3 ± 3.1 | 46.5 ± 0.8
c1 = 0.16 | 9.441e-07 ± 6.4e-09 | 1001.62 ± 0.56 | 1522.7 ± 3.1 | 44 ± 0.8
c1 = 0.18 | 9.534e-07 ± 6.4e-09 | 1001.9 ± 0.56 | 1525.8 ± 3.1 | 41.7 ± 0.8
c1 = 0.2 | 9.636e-07 ± 6.5e-09 | 1002.54 ± 0.57 | 1529.6 ± 3.1 | 39.8 ± 0.8
c1 = 0.3 | 1.025e-06 ± 6.9e-09 | 1005 ± 0.59 | 1540 ± 3.1 | 36.4 ± 0.8
c1 = 0.4 | 1.103e-06 ± 7.4e-09 | 1008.09 ± 0.61 | 1546.5 ± 3.1 | 35.8 ± 0.8
c1 = 0.5 | 1.2e-06 ± 8e-09 | 1010.5 ± 0.63 | 1549.2 ± 3.1 | 35.5 ± 0.8
c1 = 0.6 | 1.315e-06 ± 8.7e-09 | 1013.19 ± 0.65 | 1552.2 ± 3.1 | 35.4 ± 0.8
c1 = 0.8 | 1.598e-06 ± 1e-08 | 1018.07 ± 0.68 | 1557.4 ± 3.1 | 35.2 ± 0.8
c1 = 1 | 1.953e-06 ± 1.3e-08 | 1022.98 ± 0.72 | 1562.7 ± 3.1 | 35.1 ± 0.8

O [water] + CCCCCCCCCC[N+](C)(C)C.[Br-]
c2 = 0
Settings | kinematic viscosity [m2/s] | surface tension liquid-gas [mN/m]
– | 8.956e-07 ± 6e-09 | 72.5 ± 0.8

O [water] + CCCCCCCC[N+](C)(C)C.[Br-]
c2 = 0
Settings | kinematic viscosity [m2/s] | surface tension liquid-gas [mN/m]
– | 8.957e-07 ± 6e-09 | 72.5 ± 0.8

O [water] + CCCCCC[N+](C)(C)C.[Br-]
c2 = 0
Settings | kinematic viscosity [m2/s] | surface tension liquid-gas [mN/m]
– | 8.957e-07 ± 6e-09 | 72.5 ± 0.8
